According to patent US20100240746A1, “STEREOISOMERS OF TRICYCLODECAN-9-YL-XANTHOGENATE” (LUMAVITA AG, priority 2007, published 2010):
Like-named read-outs stand apart in the source and are kept apart here.

Assays:
[1] = target: T1, B. cereus PC-PLC (phosphatidylcholine-specific phospholipase C) (Bacillus cereus, UniProt P09598); test: Inhibition of phosphatidylcholine-specific phospholipase C (Amplex Red PC-PLC assay kit); assay type: biochemical; conditions: 30 min at 37° C., 0.2 U/mL PC-PLC solution, triplicate
T1 construct: purchased Invitrogen
T1 sequence (P09598 39-283 limits assumed): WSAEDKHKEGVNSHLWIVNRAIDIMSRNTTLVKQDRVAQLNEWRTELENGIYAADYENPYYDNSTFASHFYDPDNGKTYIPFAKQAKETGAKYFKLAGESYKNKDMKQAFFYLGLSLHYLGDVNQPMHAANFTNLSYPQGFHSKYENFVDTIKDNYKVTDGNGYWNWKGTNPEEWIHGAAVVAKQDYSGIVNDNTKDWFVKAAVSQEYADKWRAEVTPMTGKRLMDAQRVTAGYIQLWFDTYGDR
Experimental: The inhibitory activities of optically active potassium salts of (+)- and (−)-O-exo/C-exo-tricyclo [5.2.1.0^2,6]-dec-9-yl-xanthic acid 1A ((+)- and (−)-enantiomers 1A) against phosphatidylcholine-specific phospholipase C were evaluated, together with D609 and potassium salt of racemic O-exo/C-exo xanthic acid 1A (racemic 1A), using Amplex Red phosphatidylcholine-specific phospholipase C(PC-PLC) assay kit, which was obtained from Invitrogen (Calsbad, Calif.). D609 was obtained from Sigma Aldrich.
An Amplex Red stock solution (˜20 mM), a working reaction buffer, and a horseradish peroxidase stock solution (200 U/mL), a H2O2 working solution (20 mM), a choline oxidate stock solution (20 U/mL), an alkaline phosphatase stock solution (400 U/mL), and a B. cereus PC-PLC stock solution (10 U/mL) were prepared according to the instruction of the assay kit. The stock solution (100 mg/mL) for each test compound was also prepared by dissolving the compound in water 2 hr prior to the start of the experiment.
A working Amplex Red/HRP/lecithin solution was prepared by adding 200 μL of Amplex Red reagent stock solution, 100 μL of HRP stock solution, 200 μL of alkaline phosphatase stock solution, 100 μL of choline oxidase stock solution, and 78 μL of the lecithin solution to […] of the working reaction buffer. PC-PLC solution (0.2 U/mL) was prepared by diluting the PC-PLC stock solution with the working reaction buffer to the desired concentration.
The test compound (25 μL) at a serious of concentrations was pipetted into a 96 well plate. For uninhibited PC-PLC controls and non-PC-PLC controls, 25 μL of water was added. After the addition of 50 μL of the Amplex Red/HRP/lecithin working solution, the reaction was initiated by adding 25 μL of PC-PLC solution to each well. […] After incubated for 30 min at 37° C., the reactions were measured with a fluorescence microplate reader using excitation at 550 nm and emission detection at 590 nm. The fluorescent data obtained were corrected for background fluorescence by subtracting the values obtained from the non-PC-PLC controls.

[2] = system: actin specific RNA; test: Short-term study, effect on control RNA expression; assay type: cell-based; conditions: 0-32 μg/mL, 72 hrs
Experimental: Effect on HPV-31 specific DNA and RNA. HPV-31 infected cells (3×10^6) were dispensed into 14.5 cm dishes containing fresh E culture medium and 1×10^6 mitomycin C-treated J2 3T3 fibroblast feeders. After 6 hrs, fresh medium containing 0.85 g/L NaHCO3 and a test compound at a series of concentrations (0, 0.5, 1, 2, 4, 8, 16, and 32 μg/mL) were added. All samples were tested in duplicates at each concentration. After incubation at 37° C. for 72 hrs, the feeder cells were removed with 4 mM EDTA, and DNA and RNA was then isolated. The isolated DNA and RNA were analyzed in Southern and Northern Blot gels for HPV-31 specific sequences. Human A431 epithelial cancer cells were used as HPV-uninfected negative control. X-ray films were scanned and optical densities of HPV-31 specific DNA and major mRNA species were integrated.
Dose response curves were established by plotting integrated values against the concentrations of the test compound.

[3] = system: HPV-31 specific DNA in HPV-31-infected CIN612 9E keratinocytes; test: Long-term study, HPV-31 specific DNA (Southern Blot); assay type: cell-based, human papilloma virus
Experimental: HPV-31 infected cells (3×10^6) were dispensed into 14.5 cm dishes containing fresh E medium and 1×10^6 cells of mitomycin C-treated 3T3 fibroblast feeders. The dishes were incubated in a CO2 incubator under 5% CO2 at 37° C. in 100% humidity. Human A431 epithelial cancer cells were used as HPV-uninfected negative controls. After 6 hr incubation, the cell culture medium was removed and fresh E medium containing 0.85 g/L NaHCO3 and a test compound at concentrations of 10 and 3.3 μg/mL, or control (interferon γ at 200 IU/mL) were added. For each concentration, 4 dishes were prepared. The dishes were incubated at 37° C. in a CO2 incubator. The culture medium was replaced to new E medium containing each concentration of the test compound or control in every 72 hrs. After seven days, or when untreated cells became confluent, one dish of each group was harvested for DNA/RNA extraction, followed by Southern/Northern Blot analysis; and one dish was trypsinized, cell number were determined and cells were seeded in three new dishes, treated and cultured as described above. This procedure was repeated for 9 passages. During these passages, morphology of cells and cell density were monitored.
Effect on HPV-31 specific DNA and RNA: DNA and RNA were analyzed in Southern and Northern Blot gels for HPV-31 specific sequences. X-ray films were scanned and optical densities of HPV-31 specific DNA and major mRNA species were integrated. Time curves were established by plotting integrated values against number of passages for each treatment dose. The T50 (time required to reduce the level to 50% of control) was determined from the time curves from crossing points of time curves with a line parallel to the x-axis corresponding to 50% of integrals of untreated control sample.

S=C(S)OC1CC2CC1C1CCCC21 (single isomer, unassigned; (-)) [(−)-Enantiomer 1A, (−)-O-exo/C-exo-tricyclo[5.2.1.0^2,6]-dec-9-yl-xanthic acid]
IC50 [1]: 15.9 µM | expression of the control RNA (actin specific RNA) [2]: only affected at the highest concentration of 32 μg/mL | T50 DNA ([3]; 3.3 μg/mL): 2.23 passages | HPV-31 specific DNA content ([3]; 3.3 μg/mL or 10 μg/mL): continuous reductions | T50 DNA ([3]; 10 μg/mL, listed as (−)-enantiomer 1A): < 1 passages | T50 DNA ([3]; 10 μg/mL, listed as Cmpd 1A): <1 passages | activity at 10 µg/mL ([3]; Human papillomavirus, Keratinocyte, 10 μg/mL, after 6 passages, read-out: number of viral genomes per cell, reduced to): < 5% | activity at 10 µg/mL ([3]; Human papillomavirus, Keratinocyte, 10 μg/mL, after 9 passages, read-out: viral DNA remaining): < 1% | inhibition at 10 µg/mL ([3]; Human papillomavirus, Keratinocyte, 10 μg/mL, after a single passage, read-out: reduction of number of viral genomes per cell): > 50%
